Reference: ChEMBL document CHEMBL4373715, “Discovery and Biological Evaluations of Halogenated 2,4-Diphenyl Indeno[1,2-b]pyridinol Derivatives as Potent Topoisomerase IIα-Targeted Chemotherapeutic Agents for Breast Cancer” (J Med Chem, 2019)

What was measured:
[1] = test system: HCT-15; test: Antiproliferative activity against human HCT15 cells measured after 72 hrs by EZ-Cytox assay; type: functional, cell-based; conditions: HCT-15, 72 h
[2] = test system: T47D; test: Antiproliferative activity against human T47D cells measured after 72 hrs by EZ-Cytox assay; type: functional, cell-based
[3] = test system: DU-145; test: Antiproliferative activity against human DU145 cells measured after 72 hrs by EZ-Cytox assay; type: functional, cell-based; conditions: DU-145, 72 h
[4] = test system: HeLa; test: Antiproliferative activity against human HeLa cells measured after 72 hrs by EZ-Cytox assay; type: functional, cell-based
[5] = target: T1, DNA topoisomerase 1 (Homo sapiens) (UniProt P11387); test: Inhibition of recombinant human topoisomerase 1-mediated relaxation of supercoiled pBR322 DNA at 100 uM measured after 30 mins by ethidium bromide staining based agarose gel electrophoresis relative to control
T1 sequence (whole entry): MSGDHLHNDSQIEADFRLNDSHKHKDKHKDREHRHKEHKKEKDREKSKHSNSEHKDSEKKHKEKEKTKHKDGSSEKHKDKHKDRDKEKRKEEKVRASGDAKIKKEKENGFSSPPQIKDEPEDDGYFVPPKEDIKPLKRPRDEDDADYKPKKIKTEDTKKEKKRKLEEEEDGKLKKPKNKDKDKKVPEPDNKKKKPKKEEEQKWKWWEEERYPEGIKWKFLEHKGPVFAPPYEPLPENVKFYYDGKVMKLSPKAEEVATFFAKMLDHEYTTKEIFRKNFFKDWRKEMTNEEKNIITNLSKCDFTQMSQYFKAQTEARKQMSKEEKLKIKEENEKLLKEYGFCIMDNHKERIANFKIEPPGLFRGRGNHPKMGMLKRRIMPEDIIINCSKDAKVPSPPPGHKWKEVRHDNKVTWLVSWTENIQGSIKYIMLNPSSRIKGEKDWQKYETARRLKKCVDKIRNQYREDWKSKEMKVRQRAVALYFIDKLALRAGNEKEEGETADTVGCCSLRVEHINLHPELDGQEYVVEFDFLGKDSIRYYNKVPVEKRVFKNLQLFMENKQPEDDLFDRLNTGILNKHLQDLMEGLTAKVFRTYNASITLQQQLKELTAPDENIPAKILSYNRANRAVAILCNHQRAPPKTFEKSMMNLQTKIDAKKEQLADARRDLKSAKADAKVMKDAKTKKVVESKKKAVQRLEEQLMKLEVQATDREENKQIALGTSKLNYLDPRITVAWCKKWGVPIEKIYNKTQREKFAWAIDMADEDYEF

[6] = target: DNA topoisomerase 2-alpha (Homo sapiens) (UniProt P11388); test: Inhibition of recombinant human topoisomerase 2alpha-mediated relaxation of supercoiled pBR322 DNA at 100 uM measured after 30 mins by ethidium bromide staining based agarose gel electrophoresis relative to control
Chain of DNA topoisomerase 2-alpha (Homo sapiens) (P11388 whole entry): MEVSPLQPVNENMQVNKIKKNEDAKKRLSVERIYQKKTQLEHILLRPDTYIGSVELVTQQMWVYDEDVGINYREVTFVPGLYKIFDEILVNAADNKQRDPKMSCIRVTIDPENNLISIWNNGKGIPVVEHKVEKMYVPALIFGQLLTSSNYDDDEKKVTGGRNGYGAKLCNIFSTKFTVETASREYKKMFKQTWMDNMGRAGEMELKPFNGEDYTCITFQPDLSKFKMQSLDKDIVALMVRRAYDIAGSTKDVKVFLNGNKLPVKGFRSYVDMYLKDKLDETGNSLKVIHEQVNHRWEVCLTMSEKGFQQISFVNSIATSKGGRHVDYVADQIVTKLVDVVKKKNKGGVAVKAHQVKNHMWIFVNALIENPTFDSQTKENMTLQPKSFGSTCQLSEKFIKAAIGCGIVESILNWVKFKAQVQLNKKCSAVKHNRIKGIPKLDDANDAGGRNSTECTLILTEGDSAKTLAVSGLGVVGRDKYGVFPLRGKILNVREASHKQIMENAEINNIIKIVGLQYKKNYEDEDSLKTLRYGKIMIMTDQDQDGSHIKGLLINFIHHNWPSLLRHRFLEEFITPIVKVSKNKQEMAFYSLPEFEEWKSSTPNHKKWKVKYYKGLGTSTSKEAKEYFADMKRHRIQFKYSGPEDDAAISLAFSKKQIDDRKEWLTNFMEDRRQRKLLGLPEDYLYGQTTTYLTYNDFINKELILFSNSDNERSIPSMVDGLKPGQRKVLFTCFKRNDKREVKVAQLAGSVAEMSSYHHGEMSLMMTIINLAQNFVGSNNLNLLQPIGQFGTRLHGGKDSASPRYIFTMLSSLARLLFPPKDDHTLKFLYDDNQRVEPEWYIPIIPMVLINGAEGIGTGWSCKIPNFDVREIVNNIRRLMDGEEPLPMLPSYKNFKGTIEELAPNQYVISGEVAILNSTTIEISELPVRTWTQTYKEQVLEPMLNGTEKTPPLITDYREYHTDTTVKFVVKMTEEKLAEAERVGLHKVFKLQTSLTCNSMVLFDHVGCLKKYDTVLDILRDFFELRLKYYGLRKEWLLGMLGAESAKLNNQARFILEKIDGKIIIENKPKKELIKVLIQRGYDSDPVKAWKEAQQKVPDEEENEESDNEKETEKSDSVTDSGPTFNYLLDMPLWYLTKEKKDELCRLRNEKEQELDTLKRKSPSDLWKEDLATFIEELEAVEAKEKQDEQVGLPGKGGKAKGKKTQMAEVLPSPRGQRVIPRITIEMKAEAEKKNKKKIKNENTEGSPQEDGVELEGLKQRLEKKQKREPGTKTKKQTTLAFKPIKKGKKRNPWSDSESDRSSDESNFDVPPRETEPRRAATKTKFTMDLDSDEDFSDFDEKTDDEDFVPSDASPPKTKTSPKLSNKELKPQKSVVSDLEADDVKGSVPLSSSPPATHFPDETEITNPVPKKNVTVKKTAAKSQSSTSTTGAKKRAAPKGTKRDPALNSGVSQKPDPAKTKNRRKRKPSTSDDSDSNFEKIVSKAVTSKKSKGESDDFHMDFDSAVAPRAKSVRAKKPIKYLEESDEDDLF

[7] = target: DNA topoisomerase 2-alpha (Homo sapiens) (UniProt P11388); test: Inhibition of recombinant human topoisomerase 2alpha-mediated relaxation of supercoiled pBR322 DNA at 20 uM measured after 30 mins by ethidium bromide staining based agarose gel electrophoresis relative to control

| inhibition [5] [%] | inhibition [6] [%] | inhibition [7] [%] | Compound | IC50 [1] [nM] | IC50 [2] [nM] | IC50 [3] [nM] | IC50 [4] [nM] |
| --- | --- | --- | --- | --- | --- | --- | --- |
| 0 | 70.5 | 6.4 | Oc1ccccc1-c1cc(-c2ccc(Cl)cc2)c2c(n1)-c1c(O)cccc1C2 | 18800 | 13000 | 1950 | > 50000 |
| 1.2 | 72.8 | 36.9 | Oc1ccc(-c2cc(-c3cccc(Cl)c3)nc3c2Cc2c(O)cccc2-3)cc1 | 1840 | 620 | 220 | 3560 |
| 7.1 | 30.1 | 0.6 | Oc1ccc(-c2cc(-c3ccccc3C(F)(F)F)nc3c2Cc2c(O)cccc2-3)cc1 | 3820 | 2660 | 5340 | > 50000 |
| 0 | 80.7 | 4.8 | Oc1ccccc1-c1cc(-c2cccc(F)c2)nc2c1Cc1c(O)cccc1-2 | 2350 | 1250 | 3940 | 3920 |
| 8.4 | 71.6 | 1.5 | Oc1ccccc1-c1cc(-c2ccc(Cl)cc2)c2c(n1)-c1cccc(O)c1C2 | > 50000 | > 50000 | 12800 | > 50000 |

Continued, compound first:

| Compound | inhibition [5] [%] | inhibition [6] [%] | inhibition [7] [%] | IC50 [1] [nM] | IC50 [2] [nM] | IC50 [3] [nM] | IC50 [4] [nM] |
| --- | --- | --- | --- | --- | --- | --- | --- |
| Oc1ccc(-c2cc(-c3ccccc3Cl)c3c(n2)-c2ccc(O)cc2C3)cc1 | 11.9 | 80 | 7 | 4270 | 2700 | 3250 | 4920 |
| Oc1ccccc1-c1cc(-c2ccccc2Cl)nc2c1Cc1cccc(O)c1-2 | 13.4 | 80.9 | 3.7 | 3170 | 870 | 290 | 1120 |
| Oc1cccc(-c2cc(-c3ccc(Cl)cc3)c3c(n2)-c2ccc(O)cc2C3)c1 | 2.1 | 74.3 | 6.2 | > 50000 | > 50000 | > 50000 | > 50000 |
| Oc1cccc(-c2cc(-c3cccc(C(F)(F)F)c3)nc3c2Cc2c(O)cccc2-3)c1 | 5.6 | 67.3 | 40.5 | 2690 | 1910 | 1620 | 4170 |
| Oc1cccc(-c2cc(-c3ccc(C(F)(F)F)cc3)nc3c2Cc2cccc(O)c2-3)c1 | 0 | 100 | 0 | 11300 | 2140 | 2220 | 6660 |
| Oc1cccc(-c2cc(-c3ccccc3)c3c(n2)-c2ccc(O)cc2C3)c1 | 10.2 | 36 | 3.3 | 1300 | 4120 | 270 | 5700 |
| Oc1ccc(-c2cc(-c3cccc(C(F)(F)F)c3)nc3c2Cc2c(O)cccc2-3)cc1 | 9.4 | 84.4 | 0 | 2620 | 1230 | 1750 | 4570 |
| Oc1ccc(-c2cc(-c3ccccc3Cl)nc3c2Cc2cccc(O)c2-3)cc1 | 0 | 30.3 | 3.6 | 2970 | 610 | 190 | 2850 |
| Oc1ccc(-c2cc(-c3cccc(Cl)c3)c3c(n2)-c2cc(O)ccc2C3)cc1 | 8.8 | 73.6 | 1.2 | 7590 | 2760 | 2100 | 8060 |
| Oc1ccc2c(c1)Cc1c(-c3ccccc3O)cc(-c3ccc(C(F)(F)F)cc3)nc1-2 | 0 | 99.9 | 11.9 | 4330 | 830 | 2090 | 7870 |
| Oc1ccc(-c2cc(-c3ccccc3Cl)c3c(n2)-c2cc(O)ccc2C3)cc1 | 4 | 74.8 | 2 | 2910 | 1640 | 4650 | 6500 |
